Counter-ions that a name gives are not always drawn. Like-named read-outs stand apart in the source and are kept apart here.
Tests used:
[1] = system: HT-1197 cells; assay: Cell-based assay, cellular growth (Cell Counting Kit-8, 72 hours), PBK-negative control cells
Protocol: (§1) 100 micro-L of cell suspension was seeded onto 96-well microtiter plate (ViewPlate-96FTC, PerkinElmer). […] Cellular growth was determined using Cell Counting Kit-8 (DOJINDO) at 72 hours after the exposure of the candidate inhibitors. […] Accurate IC50 values were calculated as described previously.

[2] = system: BT-549 cells; assay: Cell-based assay, cellular growth (Cell Counting Kit-8, 72 hours); details: Homo sapiens, BT549 cells
Protocol: as §1

[3] = system: A549 cells; assay: as above
Protocol: as §1

[4] = system: T47D cells; assay: as above
Protocol: as §1

[5] = target: PBK (Homo sapiens (Human), UniProt Q96KB5); assay: Kinase assay (IMAP fluorescence polarization, FITC-labeled histone H3 peptide); type: biochemical
Protocol: PBK activity was determined in the presence or absence of compounds using fluorescein isothiocyanate-labeled (FITC-labeled) histone H3 peptide as a substrate. […] The serially diluted compounds, 0.8 ng/micro-L PBK (Carna Biosciences) and 100 nM FITC-labeled histone H3 peptide were reacted in a reaction buffer (20 mM HEPES, 0.01% Tween-20, 0.3 mM MgCl2, 2 mM dithiothreitol, 50 micro-M ATP, pH 7.4) at room temperature for 1 hour. The reaction was stopped by the addition of three fold assay volume of progressive binding solution. […] IC50 values were calculated by nonlinear four parameter fit using SigmaPlot, version 10.0 (Systat Software, Inc.).

[6] = PBK 0.8 ng/micro-L, 50 micro-M ATP, 100 nM FITC-labeled histone H3 peptide, room temperature 1 hour
[7] = Homo sapiens, HT1197 cells (PBK-negative control)
[8] = HT1197 cells (PBK-negative control), hydrobromide
[9] = PBK 0.8 ng/micro-L, 50 micro-M ATP, 100 nM FITC-labeled histone H3 peptide, room temperature 1 hour, hydrobromide

Chain of PBK (Q96KB5 whole entry): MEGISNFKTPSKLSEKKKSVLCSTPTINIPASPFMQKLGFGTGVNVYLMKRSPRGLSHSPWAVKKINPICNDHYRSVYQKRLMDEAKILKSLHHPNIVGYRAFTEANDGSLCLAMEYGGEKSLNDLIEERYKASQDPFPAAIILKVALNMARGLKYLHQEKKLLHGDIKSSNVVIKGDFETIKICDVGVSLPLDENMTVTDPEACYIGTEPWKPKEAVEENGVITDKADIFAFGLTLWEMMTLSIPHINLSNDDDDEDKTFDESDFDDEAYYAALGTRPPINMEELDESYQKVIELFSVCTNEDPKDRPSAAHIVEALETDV

| SMILES | IC50 ([1]; Homo sapiens, HT1197, 72 h) [nM] | IC50 [2] [nM] | IC50 ([3]; Homo sapiens, A549, 72 h) [nM] | IC50 ([4]; Homo sapiens, T47D, 72 h) [nM] | IC50 [5] [nM] | IC50 [5, 6] [nM] | further results |
| --- | --- | --- | --- | --- | --- | --- | --- |
| CC(N)c1ccc(-c2c(O)cc(Cl)c3[nH]c(=O)c4sccc4c23)cc1 (stereo not drawn) [Compound 1041, 9-(4-(1-aminoethyl)phenyl)-6-chloro-8-hydroxythieno[2,3-c]quinolin-4(5H)-one hydrochloride] | 650 | 190 | 160 | 340 | 12 | – | – |
| CN[C@H](C)c1ccc(-c2c(O)ccc3[nH]c(=O)c4sccc4c23)cc1 [Compound 1052, (R)-8-hydroxy-9-(4-(1-(methylamino)ethyl)phenyl)thieno[2,3-c]quinolin-4(5H)-one hydrochloride] | 450 | 170 | 170 | 320 | – | 1.3 | – |
| C[C@@H](N)c1ccc(-c2c(O)cc(Cl)c3[nH]c(=O)c4sccc4c23)cc1 [Compound 1081, (R)-9-(4-(1-aminoethyl)phenyl)-6-chloro-8-hydroxythieno[2,3-c]quinolin-4(5H)-one hydrochloride] | 390 | 86 | 100 | 170 | 8.6 | – | – |
| CC(CN(C)C)c1ccc(-c2c(O)ccc3[nH]c(=O)c4sccc4c23)cc1 (stereo not drawn) [Compound 1112, 9-(4-(1-(dimethylamino)propan-2-yl)phenyl)-8-hydroxythieno[2,3-c]quinolin-4(5H)-one hydrochloride] | – | 210 | – | – | 3.3 | – | IC50 [1, 7]: 640 nM; IC50 ([3]; Homo sapiens): 250 nM; IC50 ([4]; Homo sapiens): 470 nM |
| C[C@H](c1ccc(-c2c(O)cc(Cl)c3[nH]c(=O)c4sccc4c23)cc1)N(C)C [Compound 1126, (R)-6-chloro-9-(4-(1-(dimethylamino)ethyl)phenyl)-8-hydroxythieno [2,3-c]quinolin-4(5H)-one hydrochloride] | 320 | 140 | 110 | 290 | – | 42 | – |
| CN[C@H](C)c1ccc(-c2c(O)cc(Cl)c3[nH]c(=O)c4sccc4c23)cc1 [Compound 1132, (R)-6-chloro-8-hydroxy-9-(4-(1-(methylamino)ethyl)phenyl)thieno[2,3-c]quinolin-4(5H)-one hydrochloride] | 320 | 97 | 90 | 190 | – | 14 | – |
| NCCc1ccc(-c2c(O)cc(Cl)c3[nH]c(=O)c4sccc4c23)cc1 [Compound 1133, 9-(4-(2-aminoethyl)phenyl)-6-chloro-8-hydroxythieno[2,3-c]quinolin-4(5H)-one hydrochloride] | 870 | 150 | 180 | 230 | 20 | – | – |
| CC(CN)c1ccc(-c2c(O)cc(Cl)c3[nH]c(=O)c4sccc4c23)cc1 (stereo not drawn) [Compound 1136, 9-(4-(1-aminopropan-2-yl)phenyl)-6-chloro-8-hydroxythieno[2,3-c]quinolin-4(5H)-one hydrochloride] | 180 | 32 | 35 | 57 | – | 8.6 | – |
| COc1ccc2[nH]c(=O)c3sccc3c2c1-c1ccc(S(=O)(=O)NCCCl)cc1 [Compound 1139, N-(2-chloroethyl)-4-(8-methoxy-4-oxo-4,5-dihydrothieno[2,3-c]quinolin-9-yl)benzenesulfonamide] | – | 17 | – | – | – | 70 | IC50 [1, 7]: 14000 nM; IC50 ([3]; Homo sapiens): 23 nM; IC50 ([4]; Homo sapiens): 200 nM |
| NCCc1ccc(-c2c(O)cc(Br)c3[nH]c(=O)c4sccc4c23)cc1 [Compound 1142, 9-(4-(2-aminoethyl)phenyl)-6-bromo-8-hydroxythieno[2,3-c]quinolin-4(5H)-one hydrochloride] | 1000 | 170 | 210 | 250 | – | 45 | – |
| COc1ccc2[nH]c(=O)c3sccc3c2c1-c1ccc([C@@H](C)CN)cc1 [Compound 1161, (R)-9-(4-(1-aminopropan-2-yl)phenyl)-8-methoxythieno[2,3-c]quinolin-4(5H)-one hydrochloride] | 820 | 220 | 270 | 450 | – | 2 | – |
| C[C@@H](CN)c1ccc(-c2c(O)cc(Cl)c3[nH]c(=O)c4sccc4c23)cc1 [Compound 1166, (R)-9-(4-(1-aminopropan-2-yl)phenyl)-6-chloro-8-hydroxythieno[2,3-c]quinolin-4(5H)-one hydrochloride] | 120 | 13 | 17 | 26 | – | 4.4 | – |
| C[C@@H](CN)c1ccc(-c2c(O)cc(Br)c3[nH]c(=O)c4sccc4c23)cc1 [Compound 1176, (R)-9-(4-(1-aminopropan-2-yl)phenyl)-6-bromo-8-hydroxythieno[2,3-c]quinolin-4(5H)-one hydrochloride] | 100 | 24 | 27 | 38 | – | 17 | – |
| COc1ccc2[nH]c(=O)c3sccc3c2c1-c1ccc(C(C)CN)c(F)c1 (stereo not drawn) [Compound 1179, 9-(4-(1-aminopropan-2-yl)-3-fluorophenyl)-8-methoxythieno[2,3-c]quinolin-4(5H)-one hydrochloride] | 1900 | 450 | 630 | 860 | – | 3 | – |
| CNC[C@H](C)c1ccc(-c2c(O)ccc3[nH]c(=O)c4sccc4c23)cc1 [Compound 1187, (R)-8-hydroxy-9-(4-(1-(methylamino)propan-2-yl)phenyl)thieno[2,3-c]quinolin-4(5H)-one hydrochloride] | 320 | 190 | 200 | 190 | – | 1.3 | – |
| C[C@@H](CN(C)C)c1ccc(-c2c(O)ccc3[nH]c(=O)c4sccc4c23)cc1 [Compound 1188, (R)-9-(4-(1-(dimethylamino)propan-2-yl)phenyl)-8-hydroxythieno[2,3-c]quinolin-4(5H)-one hydrochloride] | – | 160 | – | – | 2.5 | – | IC50 [1, 7]: 430 nM; IC50 ([3]; Homo sapiens): 160 nM; IC50 ([4]; Homo sapiens): 290 nM |
| Cc1cc(O)c(-c2ccc([C@H](C)CN)c(F)c2)c2c1[nH]c(=O)c1sccc12 [Compound 1304, (S)-9-(4-(1-aminopropan-2-yl)-3-fluorophenyl)-8-hydroxy-6-methylthieno[2,3-c]quinolin-4(5H)-one hydrobromide] | – | – | – | – | – | – | IC50 [1, 8]: 340 nM; IC50 ([3]; hydrobromide): 99 nM; IC50 ([4]; hydrobromide): 120 nM; IC50 [5, 9]: 13 nM |
| CNC[C@H](C)c1ccc(-c2c(O)cc(C)c3[nH]c(=O)c4sccc4c23)cc1 [Compound 1306, (R)-8-hydroxy-6-methyl-9-(4-(1-(methylamino)propan-2-yl)phenyl)thieno[2,3-c]quinolin-4(5H)-one hydrochloride] | – | – | – | – | – | – | IC50 ([1]; HT1197 cells (PBK-negative control), hydrochloride): 73 nM; IC50 ([3]; hydrochloride): 20 nM; IC50 ([4]; hydrochloride): 35 nM; IC50 ([5]; PBK 0.8 ng/micro-L, 50 micro-M ATP, 100 nM FITC-labeled histone H3 peptide, room temperature 1 hour, hydrochloride): 7.3 nM |
| Cc1cc(O)c(-c2ccc([C@@H](C)CN)c(F)c2)c2c1[nH]c(=O)c1sccc12 [Compound 1319, (R)-9-(4-(1-aminopropan-2-yl)-3-fluorophenyl)-8-hydroxy-6-methylthieno[2,3-c]quinolin-4(5H)-one hydrobromide] | – | – | – | – | – | – | IC50 [1, 8]: 54 nM; IC50 ([3]; hydrobromide): 14 nM; IC50 ([4]; hydrobromide): 16 nM; IC50 [5, 9]: 3.4 nM |
| Cc1cc(O)c(-c2ccc([C@@H](C)CN(C)C)cc2)c2c1[nH]c(=O)c1sccc12 [Compound 1324, (R)-9-(4-(1-(dimethylamino)propan-2-yl)phenyl)-8-hydroxy-6-methylthieno[2,3-c]quinolin-4(5H)-one hydrochloride] | – | 30 | – | – | – | – | IC50 ([3]; Homo sapiens): 24 nM; IC50 ([4]; Homo sapiens): 66 nM |
| CCN(C)C[C@H](C)c1ccc(-c2c(O)cc(C)c3[nH]c(=O)c4sccc4c23)cc1 [Compound 1379, (R)-9-(4-(1-(ethyl(methyl)amino)propan-2-yl)phenyl)-8-hydroxy-6-methylthieno[2,3-c]quinolin-4(5H)-one hydrochloride] | 310 | – | 110 | 280 | 76 | – | – |
| CC[C@@H](CNC)c1ccc(-c2c(O)cc(C)c3[nH]c(=O)c4sccc4c23)cc1 [Compound 1380, (R)-8-hydroxy-6-methyl-9-(4-(1-(methylamino)butan-2-yl)phenyl)thieno[2,3-c]quinolin-4(5H)-one hydrochloride] | 370 | – | 96 | 240 | 85 | – | – |
| Cc1cc(O)c(-c2ccc([C@H](C)CN(C)C)c(F)c2)c2c1[nH]c(=O)c1sccc12 [Compound 1399, (S)-9-(4-(1-(dimethylamino)propan-2-yl)-3-fluorophenyl)-8-hydroxy-6-methylthieno[2,3-c]quinolin-4(5H)-one hydrochloride] | 470 | – | 180 | 450 | 58 | – | – |
| Cc1cc(O)c(-c2ccc(N(C)CCN)cc2)c2c1[nH]c(=O)c1sccc12 [Compound 1400, 9-(4-((2-aminoethyl)(methyl)amino)phenyl)-8-hydroxy-6-methylthieno[2,3-c]quinolin-4(5H)-one hydrochloride] | 2800 | – | 900 | 1400 | – | 60 | – |

Reference: patent publication US8962648B2, “Tricyclic compounds and PBK inhibitors containing the same” (OncoTherapy Science, Inc., priority 2010, dated 2015)
